Source: paper PMC9354954, “Assessing Bioavailability and Bioactivity of 4-Hydroxythiazolidine-2-Thiones, Newly Discovered Glucosinolate Degradation Products Formed During Domestic Boiling of Cabbage” (Frontiers in Nutrition, 2022)

Tests used:
[1] = design: method as in PMID 35761548; details: recently calculated; cited from earlier work
[2] = Uptake and excretion from red cabbage broth, human self-experiment (24 h urine, LC-MS/MS); format: in vivo; details: male, 500 mL red cabbage broth, oral, n = 3, mean ± SD, read-out: recovery in collected urine within 24 h compared to the amount of intake
Method: To obtain the GLS degradation products allyl HTT and 4-MSOB HTT in the food matrix, a kitchen practice approach was applied. Therefore, 1.2 kg of fresh conventional red cabbage (Brassica oleracea var. capitata f. rubra) bought in a supermarket were cut into approximately 4 × 4 × 4 cm pieces and boiled for 1 h in 3 L of tap water without additives in a stainless-steel pot with a glass lid on a kitchen stove. After cooling to room temperature, three male authors of this study (27–39 years) drank 500 mL of the red cabbage boiling solution (broth) without red cabbage pieces. […] In total, 950 μL of 1:1 diluted red cabbage boiling solution was measured in 3 different ways (each prepared as duplicates): (1) Spiked with 50 μL water, (2) spiked with 50 μL of a solution with concentrations of 1 μM for allyl HTT and 5 μM for 4-MSOB HTT, or (3) spiked with 50 μL of a solution with concentrations of 3 μM for allyl HTT and 10 μM for 4-MSOB HTT. Urine samples were measured in three different ways (each prepared as duplicates): 200 μL of undiluted urine was spiked with (1) 1 μL of water, (2) 1 μL of a solution with concentrations of 4 μM for allyl HTT and 8 μM for 4-MSOB HTT, or (3) 1.5 μL of a solution with concentrations of 4 μM for allyl HTT and 8 μM for 4-MSOB HTT. […]

[3] = Stability in an in vitro stomach model; format: in vitro ADME; details: 100 μM, 2 h, 37°C, stomach model solution pH 2
Method: To investigate the stability of the HTTs in the process of nutrient absorption, allyl HTT and 4-MSOB HTT were incubated (prepared as triplicates) at a concentration of 100 μM in an in vitro stomach model solution containing 2.9 g/L NaCl, 0.7 g/L KCl, 0.27 g/L KH2PO4, 0.78 g/L pepsin, and 3 g/L mucin-type II and adjusted with 1 M HCl to pH 2.0 based on literature ([25]). To simulate the stomach, samples were shaken slightly for 2 h at 200 rpm in a thermoshaker (MHR 23, Hettich Benelux B.V, Netherlands) at 37°C. Afterward, 500 μL of MeCN were added to 500 μL of stomach model solution to precipitate proteins and salts. The suspension was centrifuged for 3 min at 4,000 g and the supernatant was analyzed by HPLC-UV at a wavelength of 274 ± 2 nm. The stability of allyl HTT and 4-MSOB HTT in the stomach model was determined by the recovery compared to incubation in pure water at room temperature. […]

SMILES: C=CCN1C(=S)SCC1O (stereo not drawn) [allyl HTT, 3-allyl-4-hydroxythiazolidine-2-thione]
- calculated log P (partition coefficient in octanol/water) [1]: 0.47
- dose excreted [2]: 18 ± 5%
- recovery compared to the pure water control reference [3]: 98 ± 2%

SMILES: C[S+]([O-])CCCCN1C(=S)SCC1O (stereo not drawn) [4-MSOB HTT, 4-hydroxy-3-(4-(methylsulfinyl)butyl)thiazolidine-2-thione]
- calculated log P (partition coefficient in octanol/water) [1]: −1.12
- dose excreted [2]: 21 ± 4%
- recovery compared to the pure water control reference [3]: 98 ± 3%
